ChEMBL document CHEMBL1157277, “Antifungal and antibacterial metabolites from a sclerotium-colonizing isolate of Mortierella vinacea” (1999)
Calls of active or inactive are those of the source. The rule behind the calls is not given here.

Columns and labels:
Fusarium verticillioides [1] = experiment: Antimicrobial activity against Fusarium verticillioides NRRL 25457 at 250 ug/disk by standard disk assay after 48 hrs; format: functional; conditions: for zone of inhibition at 250 µg/disc: NRRL 25457, 48 h, read-out: IZ
Aspergillus flavus = experiment: Antimicrobial activity against Aspergillus flavus NRRL 6541 at 250 ug/disk by standard disk assay; format: functional, organism-based
Candida albicans [2] = experiment: Antimicrobial activity against Candida albicans ATCC 10453 at 50 ug/disk by standard disk assay; format: functional; conditions: read-out: IZ
Fusarium verticillioides [3] = experiment: Antimicrobial activity against Fusarium verticillioides NRRL 25457 at 100 ug/disk by standard disk assay after 48 hrs; format: functional, organism-based
Staphylococcus aureus [4] = experiment: Antimicrobial activity against Staphylococcus aureus ATCC 14053 at 100 ug/disk by standard disk assay; format: functional; conditions: read-out: IZ
Bacillus subtilis [5] = experiment: Antimicrobial activity against Bacillus subtilis ATCC 6051 at 100 ug/disk by standard disk assay; format: functional; conditions: read-out: IZ
Bacillus subtilis [6] = experiment: Antimicrobial activity against Bacillus subtilis ATCC 6051 at 50 ug/disk by standard disk assay; format: functional, organism-based
Staphylococcus aureus [7] = experiment: Antimicrobial activity against Staphylococcus aureus ATCC 14053 at 50 ug/disk by standard disk assay; format: functional, organism-based
Candida albicans [8] = experiment: Antimicrobial activity against Candida albicans ATCC 10453 at 100 ug/disk by standard disk assay; format: functional; conditions: read-out: IZ

`COC(=O)[C@H](C)NC(=O)c1c(C)c(C)c(O)c(C)c1O` was tested, and the Activity (Fusarium verticillioides [1]) was “inactive” and the Activity (Aspergillus flavus) was “inactive”.

`COC(=O)CNC(=O)c1c(C)c(C)c(O)c(C)c1O` was tested, and the Activity (Fusarium verticillioides [1]) was “inactive” and the Activity (Aspergillus flavus) was “inactive”.

For `O=C(O)c1cccnc1` [NIACIN], the zone of inhibition at 250 µg/disc (Fusarium verticillioides [1]) was 30 mm and the Activity (Aspergillus flavus) was “inactive”.

With `CCCCC[C@@H](O)[C@H]1C(=O)O[C@H](C)[C@@H](O)/C=C/C=C/C=C/C=C/C=C(\C)[C@@H](O)C[C@H](O)C[C@H](O)C[C@H](O)C[C@H](O)C[C@H](O)C[C@@H]1O` [FILIPIN] the zone of inhibition at 50 µg/disc (Candida albicans [2]) was 15 mm.

For NYSTATIN, the inhibition zone (IZ) (Fusarium verticillioides [3]) was 19 mm.

Work on `COC(=O)c1c(C)c(C)c(O)c(C)c1O` yielded a zone of inhibition at 100 µg/disc (Staphylococcus aureus [4]) of 10 mm, a zone of inhibition at 250 µg/disc (Fusarium verticillioides [1]) of 30 mm and a zone of inhibition at 100 µg/disc (Bacillus subtilis [5]) of 10 mm. For the same compound, the Activity (Aspergillus flavus) was “inactive”.

GENTAMICIN SULFATE showed an inhibition zone (IZ) (Bacillus subtilis [6]) of 24 mm and an inhibition zone (IZ) (Staphylococcus aureus [7]) of 24 mm.

In the case of `CSC(=O)c1c(C)c(C)c(O)c(C)c1O` [MORTIVINACIN A], the zone of inhibition at 250 µg/disc (Fusarium verticillioides [1]) is reported as 30 mm, the Activity (Aspergillus flavus) is reported as “inactive” and the zone of inhibition at 100 µg/disc (Candida albicans [8]) is reported as 15 mm.
